Patent US6326395A, “Antifungal activity of dicationic molecules” (priority 1999, dated 2001)
Values after ≈ are worked out from the molar mass of the structure shown. Read-outs that look alike come from different tables or passages of the source.

Experiments:
Cryptococcus neoformans = test: in vitro antifungal susceptibility testing (MIC, MFC; broth macrodilution), Tables 1-7; format: cell-based; details: for MIC: read-out: MIC80 (Minimum inhibitory concentration 80%); for MFC: read-out: MFC (Minimum fungicidal concentration)
Excerpt: (§1) The fungi that were employed included two reference strains, C. neoformans var. neoformans H99 and C. albicans A39 and the following clinical isolates: (1) two strains of fluconazole-resistant C. neoformans var. neoformans (135.95 and 114.96); (2) two strains of C. neoformans var. gattii (119.95 and 114.95); (3) two strains of fluconazole-resistant C. albicans (102.96 and 103.96); and (4) one strain each of Torulopsis glabrata (142.91), Candida parapsilosis (111.96), Candida krusei (132.91), C. tropicalis (110.96), Candida lusitaniae (111.92), Fusarium solani (152.89), Aspergillus fumigatus (168.95), and Aspergillus flavus (112.96). Antifungal susceptibility testing was performed using an RPMI-1640 medium (Sigma Chemical Co., St. Louis, Mo.) with glutamine, without sodium bicarbonate, and buffered at pH 7.0 with 0.165 M morpholine-propanesulfonic acid (MOPS).
(§2) In vitro susceptibility testing in the form of Minimum Inhibitory Concentration (MIC) experiments were performed using the broth macrodilution method according to the recommendations of the National Committee for Clinical Laboratory Standards (see 1995 manual). The only difference compared to the standardized procedure was the choice of drug dilutions ranging from 100 to 0.09 μg/ml. Briefly, this procedure specifies an inoculum grown at 35° C. and adjusted to a concentration of 0.5-2.5×10^3 CFU/ml with an incubation of the test performed at 35° C. and reading at 48 hours for all yeasts except for C. neoformans which is interpreted at 72 hr.
(§3) Minimum Fungicidal Concentration (MFC) experiments were adapted from a method by McGinnis (McGinnis, M. R., (1980) "Susceptibility testing and bioassay procedure", p. 431, Academic Press, Inc., New York). Briefly, 10 μl aliquots from tubes with growth inhibition were plated onto Sabouraud agar plates.
(§4) The fungi that were employed included two quality control reference strains, C. neoformans var. neoformansH99 and C. albicans A39 and the following clinical isolates: (1) four strains of C. neoformans var. neoformans (167.95; 135.95; 114.96; and 133.95) of which three were fluconazole-resistant>64 μg/ml (135.95; 114.96; and 133.95); (2) two strains of C. neoformans var. gattii (119.95 and 114.95); (3) two strains of fluconazole-resistant>64 μg/ml C. albicans (102.96 and 103.96); and (4) one strain each of C. glabrata (142.91), Candida parapsilosis (111.96), Candida krusei (132.91), C. tropicalis (110.96), Candida lusitaniae (111.92), Fusarium solani (152.89), Aspergillus fumigatus (168.95), Rhizopus arrhizus (117.89), Paecilomyces lilacinus (137.90), and Aspergillus flavus (112.96). Antifungal susceptibility testing was performed using an RPMI-1640 medium (Sigma Chemical Co., St. Louis, Mo.) with glutamine, without sodium bicarbonate, and buffered at pH 7.0 with 0.165 M morpholinepropanesulfonic acid (MOPS).
(§5) Minimum Fungicidal Concentration (MFC) experiments were adapted from a method by McGinnis (McGinnis, M. R., (1980) "Susceptibility testing and bioassay procedure", p.431, Academic Press, Inc., New York). Briefly, 10 μl aliquots from tubes with growth inhibition were plated onto Sabouraud agar plates.

Candida albicans = test: as above; format: cell-based; details: for MIC: read-out: MIC80 (Minimum inhibitory concentration 80%); for MFC: read-out: MFC (Minimum fungicidal concentration)
Excerpt: as §1, §2, §3, §4, §5

[1] = Table 1, three or fewer colonies
[2] = Tables 2-7, three or fewer colonies

Compound	MIC (Cryptococcus neoformans; 35° C., 72 hr) [µg/mL]	MIC (Candida albicans; 35° C., reading at 48 hours) [µg/mL]	MFC (Candida albicans; three or fewer colonies) [µg/mL]	MFC (Cryptococcus neoformans; [1]) [µg/mL]	MIC (Cryptococcus neoformans; 72 h) [µg/mL]	MFC (Cryptococcus neoformans) [µg/mL]	MIC (Candida albicans; 48 h) [µg/mL]	MFC (Candida albicans) [µg/mL]	MFC (Cryptococcus neoformans; [2]) [µg/mL]
N=C(N)c1ccc(OCCOc2ccc(C(=N)N)cc2)cc1 [Compound 1]	> 100	3.12 (≈ 10.5 µM)	100 (≈ 335 µM)	–	–	–	–	–	–
N=C(N)c1ccc(OCCOc2ccc(C(=N)N)cc2N)c(N)c1 [Compound 2]	> 100	25 (≈ 76.1 µM)	–	–	–	–	–	–	–
N=C(N)c1ccc(OCCCOc2ccc(C(=N)N)cc2)cc1 [Compound 3]	6.25 (≈ 20 µM)	3.12 (≈ 9.99 µM)	3.12 (≈ 9.99 µM)	6.25 (≈ 20 µM)	–	–	–	–	–
COc1cc(C(=N)N)ccc1OCCCOc1ccc(C(=N)N)cc1OC [Compound 4]	12.5 (≈ 33.6 µM)	12.5 (≈ 33.6 µM)	50 (≈ 134 µM)	12.5 (≈ 33.6 µM)	–	–	–	–	–
NC(=NO)c1ccc(OCCCOc2ccc(C(N)=NO)cc2)cc1 [Compound 5]	> 100	> 100	–	–	–	–	–	–	–
COc1cc(C(N)=NO)ccc1OCCCOc1ccc(C(N)=NO)cc1OC [Compound 6]	> 100	> 100	–	–	–	–	–	–	–
N=C(N)c1cccc(OCCCOc2cccc(C(=N)N)c2)c1 [Compound 7]	–	> 100	> 100	–	–	–	–	–	–
N=C(N)c1ccc(NCCCNc2ccc(C(=N)N)cc2)cc1 [Compound 8]	1.56 (≈ 5.03 µM)	0.19 (≈ 0.612 µM)	0.39 (≈ 1.26 µM)	6.25 (≈ 20.1 µM)	–	–	–	–	–
N=C(N)c1ccc(NCCCNc2ccc(C(=N)N)cc2N)c(N)c1 [Compound 9]	25 (≈ 73.4 µM)	12.5 (≈ 36.7 µM)	> 100	50 (≈ 147 µM)	–	–	–	–	–
N=C(N)c1ccc(NCCCNc2ccc(C(=N)N)cc2[N+](=O)[O-])c([N+](=O)[O-])c1 [Compound 10]	–	–	–	–	100 (≈ 250 µM)	100 (≈ 250 µM)	100 (≈ 250 µM)	100 (≈ 250 µM)	–
N=C(N)c1ccc(OCCCCOc2ccc(C(=N)N)cc2)cc1 [Compound 11]	3.12 (≈ 9.56 µM)	25 (≈ 76.6 µM)	50 (≈ 153 µM)	6.25 (≈ 19.1 µM)	–	–	–	–	–
COc1cc(C(=N)N)ccc1OCCCCOc1ccc(C(=N)N)cc1OC [Compound 12]	50 (≈ 129 µM)	> 100	> 100	> 100	–	–	–	–	–
N=C(N)c1ccc(OCCCCOc2ccc(C(=N)N)cc2N)c(N)c1 [Compound 13]	12.5 (≈ 35.1 µM)	6.25 (≈ 17.5 µM)	–	50 (≈ 140 µM)	–	–	–	–	–
c1cc(C2=NCCN2)ccc1OCCCCOc1ccc(C2=NCCN2)cc1 [Compound 14]	6.25 (≈ 16.5 µM)	0.78 (≈ 2.06 µM)	1.56 (≈ 4.12 µM)	12.5 (≈ 33 µM)	–	–	–	–	–
CN1CCN=C1c1ccc(OCCCCOc2ccc(C3=NCCN3C)cc2)cc1 [Compound 15]	> 100	> 100	> 100	> 100	–	–	–	–	–
N=C(N)c1cccc(OCCCCOc2cccc(C(=N)N)c2)c1 [Compound 16]	25 (≈ 76.6 µM)	12.5 (≈ 38.3 µM)	25 (≈ 76.6 µM)	25 (≈ 76.6 µM)	–	–	–	–	–
N=C(N)c1ccc(OCCCCCOc2ccc(C(=N)N)cc2Cl)c(Cl)c1 [Compound 17]	1.56 (≈ 3.81 µM)	3.12 (≈ 7.62 µM)	6.25 (≈ 15.3 µM)	3.12 (≈ 7.62 µM)	–	–	–	–	–

Compound	MIC (Cryptococcus neoformans; 35° C., 72 hr) [µg/mL]	MIC (Candida albicans; 35° C., reading at 48 hours) [µg/mL]	MFC (Candida albicans; three or fewer colonies) [µg/mL]	MFC (Cryptococcus neoformans; [1]) [µg/mL]	MIC (Cryptococcus neoformans; 72 h) [µg/mL]	MFC (Cryptococcus neoformans) [µg/mL]	MIC (Candida albicans; 48 h) [µg/mL]	MFC (Candida albicans) [µg/mL]	MFC (Cryptococcus neoformans; [2]) [µg/mL]
N=C(N)c1ccc(NCCCCCNc2ccc(C(=N)N)cc2)cc1 [Compound 18]	0.78 (≈ 2.3 µM)	≤ 0.09	0.39 (≈ 1.15 µM)	1.56 (≈ 4.61 µM)	–	–	–	–	–
N=C(N)c1cccc(OCCCCCCOc2cccc(C(=N)N)c2)c1 [Compound 19]	6.25 (≈ 17.6 µM)	1.58 (≈ 4.46 µM)	12.5 (≈ 35.3 µM)	12.5 (≈ 35.3 µM)	–	–	–	–	–
N=C(N)c1ccc(NCCCCCCNc2ccc(C(=N)N)cc2N)c(N)c1 [Compound 20]	0.78 (≈ 2.04 µM)	0.78 (≈ 2.04 µM)	3.12 (≈ 8.16 µM)	3.12 (≈ 8.16 µM)	–	–	–	–	–
N=C(N)c1ccc(OCCCC(O)COc2ccc(C(=N)N)cc2)cc1 (centres unmarked) [Compound 21]	6.25 (≈ 17.5 µM)	6.25 (≈ 17.5 µM)	12.5 (≈ 35.1 µM)	–	–	–	–	–	12.5 (≈ 35.1 µM)
N=C(N)c1ccc(OCCC(O)CCOc2ccc(C(=N)N)cc2)cc1 (centres unmarked) [Compound 22]	12.5 (≈ 35.1 µM)	12.5 (≈ 35.1 µM)	12.5 (≈ 35.1 µM)	–	–	–	–	–	12.5 (≈ 35.1 µM)
CCCNC(=N)c1ccc(-c2ccc(-c3ccc(C(=N)NCCC)cc3)o2)cc1 [Compound 24]	1.56 (≈ 4.02 µM)	12.5 (≈ 32.2 µM)	12.5 (≈ 32.2 µM)	–	–	–	–	–	6.25 (≈ 16.1 µM)
CC(C)NC(=N)c1ccc(-c2ccc(-c3ccc(C(=N)NC(C)C)cc3)o2)cc1 [Compound 25]	6.25 (≈ 16.1 µM)	25 (≈ 64.3 µM)	50 (≈ 129 µM)	–	–	–	–	–	50 (≈ 129 µM)
CCC(CC)NC(=N)c1ccc(-c2ccc(-c3ccc(C(=N)NC(CC)CC)cc3)o2)cc1 [Compound 26]	12.5 (≈ 28.1 µM)	100 (≈ 225 µM)	100 (≈ 225 µM)	–	–	–	–	–	12.5 (≈ 28.1 µM)
CC(C)CNC(=N)c1ccc(-c2ccc(-c3ccc(C(=N)NCC(C)C)cc3)o2)cc1 [Compound 27]	3.12 (≈ 7.49 µM)	12.5 (≈ 30 µM)	–	–	–	–	–	–	12.5 (≈ 30 µM)
N=C(N)c1ccc2nc(Cc3nc4ccc(C(=N)N)cc4[nH]3)[nH]c2c1 [Compound 28]	–	–	–	–	> 100	–	> 100	–	–
c1cc2nc(Cc3nc4ccc(C5=NCCN5)cc4[nH]3)[nH]c2cc1C1=NCCN1 [Compound 29]	100 (≈ 260 µM)	> 100	> 100	–	–	–	–	–	> 100
N=C(N)c1ccc2nc(CCc3nc4ccc(C(=N)N)cc4[nH]3)[nH]c2c1 [Compound 30]	6.25 (≈ 18 µM)	12.5 (≈ 36.1 µM)	50 (≈ 144 µM)	–	–	–	–	–	25 (≈ 72.2 µM)
N=C(N)c1ccc2nc(C=Cc3nc4ccc(C(=N)N)cc4[nH]3)[nH]c2c1 [Compound 32]	1.56 (≈ 4.53 µM)	6.25 (≈ 18.1 µM)	12.5 (≈ 36.3 µM)	–	–	–	–	–	3.12 (≈ 9.06 µM)
CN(C)CCCNC(=O)c1ccc(-c2ccc(-c3ccc(C(=O)NCCCN(C)C)cc3)o2)cc1 [Compound 35]	> 100	> 100	–	–	–	–	–	–	–
CN(CCCNC(=O)c1ccc(-c2ccc(-c3ccc(C(=O)NCCCN(C)c4ccccc4)cc3)o2)cc1)c1ccccc1 [Compound 36]	> 100	> 100	–	–	–	–	–	–	–
CN(C)CCCN(C)C(=O)c1ccc(-c2ccc(-c3ccc(C(=O)N(C)CCCN(C)C)cc3)o2)cc1 [Compound 37]	> 110	> 100	–	–	–	–	–	–	–
